Results: patent US20230132823A1, “BI-FUNCTIONAL COMPOUNDS AND METHODS FOR TARGETED UBIQUITINATION OF ANDROGEN RECEPTOR” (MONTELINO THERAPEUTICS, INC., priority 2020, published 2023)
Counter-ions that a name gives are not always drawn. Where a SMILES comes first, the peptide text is derived from it. [ ]: non-standard residue; d: D form. The star is where a group is joined. X4 = O=C(COc1c(-c2csc(N3CCOCC3)n2)ccc(F)c1F)NCCCCN*; X3 = O=C(NCCCCCCN*)c1cccc2sc(N3CCOCC3)nc12; Dip = N[C@H](C(=O)O)C(c1ccccc1)c1ccccc1; Chg = N[C@H](C(=O)O)C1CCCCC1; NMeA = CN[C@@H](C)C(=O)O

These compounds were tested on 22Rv1 (assay: 22Rv1 cell proliferation assay (Experimental Example 1, cell count)). Settings: Homo sapiens, 22Rv1, read-out: 22Rv1 cell count decrease at 10 μM for 48 hours.
Assay type: cell-based
Procedure: The human prostate cancer cell line, 22Rv1 has been reported to express a high level of AR-V7. […] Standard culture media was RPMI-1640 supplemented with 10% fetal bovine serum. The test compound initially was dissolved in DMSO at 50 mM. This stock solution was then diluted as needed for the indicated concentrations. […]
In the Table: (+)—the cell count decreased between 0 and 20%; (++)—the cell count decreased […]; (+++)—the cell count decreased by more than 50%.

Question: With CN[C@@H](C)C(=O)N[C@H](C(=O)N1CCC[C@H]1C(=O)N[C@H](C(=O)NCCCCNC(=O)COc1c(-c2csc(N3CCOCC3)n2)ccc(F)c1F)C(c1ccccc1)c1ccccc1)C1CCCCC1 [Example 25, (S)-1-((S)-2-cyclohexyl-2-((S)-2-(methylamino)propanamido)acetyl)-N-((S)-1-((4-(2-(2,3-difluoro-6-(2-morpholinothiazol-4-yl)phenoxy)acetamido)butyl)amino)-1-oxo-3,3-diphenylpropan-2-yl)pyrrolidine-2-carboxamide] (H-[NMeA][Chg]P[Dip]-X4) as the compound, how does the inhibition at 10 µM read?
Answer: > 50%

Question: How did the inhibition at 10 µM turn out when CN[C@@H](C)C(=O)N[C@H](C(=O)N1CCC[C@H]1C(=O)N[C@H](C(=O)NCCCCCCNC(=O)c1cccc2sc(N3CCOCC3)nc12)C(c1ccccc1)c1ccccc1)C1CCCCC1 [Example 31, N-(6-((S)-2-((S)-1-((S)-2-cyclohexyl-2-((S)-2-(methylamino)propanamido)acetyl)pyrrolidine-2-carboxamido)-3,3-diphenylpropanamido)hexyl)-2-morpholinobenzo[d]thiazole-4-carboxamide] (H-[NMeA][Chg]P[Dip]-X3) was run?
Answer: > 50%

Same assay, conditions: Homo sapiens, 22Rv1, read-out: 22Rv1 cell count decrease at 10 μM for 48 hours; 10 μM (method: four days); read-out: 22Rv1 cell count decrease at 10 μM

Question: For Cc1ncsc1-c1ccc([C@H](C)NC(=O)[C@@H]2C[C@@H](O)CN2C(=O)[C@@H](NC(=O)COCCOCCNC(=O)COc2c(-c3csc(N4CCOCC4)n3)ccc(F)c2F)C(C)(C)C)cc1 [Example 20, (2S,4R)-1-((S)-2-(tert-butyl)-14-(2,3-difluoro-6-(2-morpholinothiazol-4-yl)phenoxy)-4,13-dioxo-6,9-dioxa-3,12-diazatetradecanoyl)-4-hydroxy-N-((S)-1-(4-(4-methylthiazol-5-yl)phenyl)ethyl)pyrrolidine-2-carboxamide], which inhibition at 10 µM is on record?
Answer: < 50%

Question: How did the inhibition at 10 µM turn out when Cc1ncsc1-c1ccc([C@H](C)NC(=O)[C@@H]2C[C@@H](O)CN2C(=O)[C@@H](NC(=O)CCCCCCCOc2c(-c3csc(N4CCOCC4)n3)ccc(F)c2F)C(C)(C)C)cc1 [Example 21, (2S,4R)-1-((S)-2-(8-(2,3-difluoro-6-(2-morpholinothiazol-4-yl)phenoxy)octanamido)-3,3-dimethylbutanoyl)-4-hydroxy-N-((S)-1-(4-(4-methylthiazol-5-yl)phenyl)ethyl)pyrrolidine-2-carboxamide] was run?
Answer: < 50%

Question: With Cc1ncsc1-c1ccc([C@H](CC(=O)NCCCCNC(=O)COc2c(-c3csc(N4CCOCC4)n3)ccc(F)c2F)NC(=O)[C@@H]2C[C@@H](O)CN2C(=O)[C@@H](NC(=O)C2(F)CC2)C(C)(C)C)cc1 [Example 22, (2S,4R)-N-((S)-3-((4-(2-(2,3-difluoro-6-(2-morpholinothiazol-4-yl)phenoxy)acetamido)butyl)amino)-1-(4-(4-methylthiazol-5-yl)phenyl)-3-oxopropyl)-1-((S)-2-(1-fluorocyclopropane-1-carboxamido)-3,3-dimethylbutanoyl)-4-hydroxypyrrolidine-2-carboxamide] as the compound, how does the inhibition at 10 µM read?
Answer: 0 to 20%

Question: For Cc1ncsc1-c1ccc([C@H](CC(=O)NCCCCCCNC(=O)COc2c(-c3csc(N4CCOCC4)n3)ccc(F)c2F)NC(=O)[C@@H]2C[C@@H](O)CN2C(=O)[C@@H](NC(=O)C2(F)CC2)C(C)(C)C)cc1 [Example 23, (2S,4R)-N-((S)-3-((6-(2-(2,3-difluoro-6-(2-morpholinothiazol-4-yl)phenoxy)acetamido)hexyl)amino)-1-(4-(4-methylthiazol-5-yl)phenyl)-3-oxopropyl)-1-((S)-2-(1-fluorocyclopropane-1-carboxamido)-3,3-dimethylbutanoyl)-4-hydroxypyrrolidine-2-carboxamide], which inhibition at 10 µM is on record?
Answer: 0 to 20%

Question: COc1cc(C(=O)NCCOCCOCCOc2c(-c3csc(N4CCOCC4)n3)ccc(F)c2F)ccc1NC(=O)[C@@H]1N[C@@H](CC(C)(C)C)[C@](C#N)(c2ccc(Cl)cc2F)[C@H]1c1cccc(Cl)c1F [Example 27, (2R,3S,4R,5S)-3-(3-chloro-2-fluorophenyl)-4-(4-chloro-2-fluorophenyl)-4-cyano-N-(4-((2-(2-(2-(2,3-difluoro-6-(2-morpholinothiazol-4-yl)phenoxy)ethoxy)ethoxy)ethyl)carbamoyl)-2-methoxyphenyl)-5-neopentylpyrrolidine-2-carboxamide] was tested. Which inhibition at 10 µM did it give?
Answer: > 50%

Question: How did the inhibition at 10 µM turn out when COc1cc(C(=O)NCCCCNC(=O)COc2c(-c3csc(N4CCOCC4)n3)ccc(F)c2F)ccc1NC(=O)[C@@H]1N[C@@H](CC(C)(C)C)[C@](C#N)(c2ccc(Cl)cc2F)[C@H]1c1cccc(Cl)c1F [Example 28, (2R,3S,4R,5S)-3-(3-chloro-2-fluorophenyl)-4-(4-chloro-2-fluorophenyl)-4-cyano-N-(4-((4-(2-(2,3-difluoro-6-(2-morpholinothiazol-4-yl)phenoxy)acetamido)butyl)carbamoyl)-2-methoxyphenyl)-5-neopentylpyrrolidine-2-carboxamide] was run?
Answer: > 50%

Question: COc1cc(C(=O)NCCCCCCNC(=O)COc2c(-c3csc(N4CCOCC4)n3)ccc(F)c2F)ccc1NC(=O)[C@@H]1N[C@@H](CC(C)(C)C)[C@](C#N)(c2ccc(Cl)cc2F)[C@H]1c1cccc(Cl)c1F [Example 29, (2R,3S,4R,5S)-3-(3-chloro-2-fluorophenyl)-4-(4-chloro-2-fluorophenyl)-4-cyano-N-(4-((6-(2-(2,3-difluoro-6-(2-morpholinothiazol-4-yl)phenoxy)acetamido)hexyl)carbamoyl)-2-methoxyphenyl)-5-neopentylpyrrolidine-2-carboxamide] was tested. Which inhibition at 10 µM did it give?
Answer: < 50%

Question: With Cc1ncsc1-c1ccc([C@H](C)NC(=O)[C@@H]2C[C@@H](O)CN2C(=O)[C@@H](NC(=O)CCCCNC(=O)c2cccc3sc(N4CCOCC4)nc23)C(C)(C)C)cc1 [Example 30, N-(5-(((S)-1-((2S,4R)-4-hydroxy-2-(((S)-1-(4-(4-methylthiazol-5-yl)phenyl)ethyl)carbamoyl)pyrrolidin-1-yl)-3,3-dimethyl-1-oxobutan-2-yl)amino)-5-oxopentyl)-2-morpholinobenzo[d]thiazole-4-carboxamide] as the compound, how does the inhibition at 10 µM read?
Answer: < 50%

Question: How did the inhibition at 10 µM turn out when O=C1CCC(N2C(=O)c3cccc(NCCCCCCNC(=O)c4nc(Br)n(-c5csc(N6CCOCC6)n5)c4Br)c3C2=O)C(=O)N1 (stereo not drawn) [Example 33, 2,5-dibromo-N-(6-((2-(2,6-dioxopiperidin-3-yl)-1,3-dioxoisoindolin-4-yl)amino)hexyl)-1-(2-morpholinothiazol-4-yl)-1H-imidazole-4-carboxamide] was run?
Answer: 0 to 20%

Question: How did the inhibition at 10 µM turn out when CN[C@@H](C)C(=O)N[C@H](C(=O)N1Cc2cc(OCCOCCOCCOc3c(-c4csc(N5CCOCC5)n4)ccc(F)c3F)ccc2C[C@H]1C(=O)N[C@@H]1CCCc2ccccc21)C(C)(C)C [Example 36, (S)-7-(2-(2-(2-(2,3-difluoro-6-(2-morpholinothiazol-4-yl)phenoxy)ethoxy)ethoxy)ethoxy)-2-((S)-3,3-dimethyl-2-((S)-2-(methylamino)propanamido)butanoyl)-N-((R)-1,2,3,4-tetrahydronaphthalen-1-yl)-1,2,3,4-tetrahydroisoquinoline-3-carboxamide dihydrochloride] was run?
Answer: > 50%
